Laboratory results from patent publication US8372831B2, “Isoxazoline linked pyrrolo[2,1-c][1,4]benzodiazepine hybrids as potential anticancer agents and the process for preparation thereof” (Council of Scientific & Industrial Research, priority 2008, dated 2013).

Experiments:
[1] = system: TK-10; experiment: NCI SRB cytotoxicity, TK-10 (renal); assay type: cell-based, human; settings: 48 hrs exposure
Description: (§1) Biological Activity: The in vitro biological activity studies were carried out at the National Cancer Institute, Maryland, USA.
(§2) The C8-linked isoxazoline-PBD hybrids have been tested against sixty human tumour cell lines derived from nine cancer types (leukemia, non-small cell lung cancer, colon cancer, CNS cancer, melanoma, ovarian cancer, renal cancer, prostate cancer and breast cancer) as per NCI protocol. For each compound, dose response curves for individual cell lines have been measured at a minimum of five concentrations at 10 fold dilutions. A protocol of 48 hrs continuous drug exposure has been used, and a sulforhodamine B (SRB) protein assay was used to estimate cell viability or growth. The concentration for 50% cell growth inhibition (GI50), total cell growth inhibition (TGI, 0% growth) and 50% cell death (LC50, […]) compared with the control has been calculated (FIG. 2).
(§3) Compound 5b and 9b have been evaluated for in vitro cytotoxicity in sixty cell lines from nine human cancer types of lung (Hop-62, NCI-H226, NCI-H522), leukemia (K-562, SR), colon (HCT-116, HCT-15, HCC-2998), CNS(SF-539), melanoma (SK-MEL-5, UACC-62, M14), ovarian (IGROV1), renal (A498), prostate (PC3) breast (BT-549, MDA-MB-435, HS578T) origin. The results are expressed as percent of cell growth determined relative to that of untreated control cells (Table 1).

[2] = system: Ovarian; experiment: NCI SRB cytotoxicity, ovarian cancer panel; assay type: cell-based, human; settings: average of six to eight different cancer cell lines; for Log10 LC50: 50% lethality
Description: as §1, §2, §3

[3] = system: Leukemia; experiment: NCI SRB cytotoxicity, leukemia panel; assay type: cell-based, human; settings: average of six to eight different cancer cell lines; for Log10 LC50: 50% lethality
Description: as §1, §2, §3

[4] = system: OVCAR-8; experiment: NCI SRB cytotoxicity, OVCAR-8 (ovarian); assay type: cell-based, human; settings: 48 hrs exposure
Description: as §1, §2, §3

[5] = system: NCI-H522; experiment: NCI SRB cytotoxicity, NCI-H522 (non-small cell lung); assay type: cell-based, human
Description: as §1, §2, §3

[6] = system: NCI-H23; experiment: NCI SRB cytotoxicity, NCI-H23 (non-small cell lung); assay type: cell-based, human; settings: NCI-H23, Non-smallcell lung; 48 hrs exposure
Description: as §1, §2, §3

[7] = system: Non small cell lung cancer; experiment: NCI SRB cytotoxicity, non-small cell lung cancer panel; assay type: cell-based, human; settings: average of six to eight different cancer cell lines; for Log10 LC50: 50% lethality
Description: as §1, §2, §3

[8] = system: A549/ATCC; experiment: NCI SRB cytotoxicity, A549/ATCC (non-small cell lung); assay type: cell-based, human; settings: Non-smallcell lung, 48 hrs exposure
Description: as §1, §2, §3

[9] = system: CCRF-CEM; experiment: NCI SRB cytotoxicity, CCRF-CEM (leukemia); assay type: cell-based, human; settings: 48 hrs exposure
Description: as §1, §2, §3

[10] = system: U251; experiment: NCI SRB cytotoxicity, U251 (CNS); assay type: cell-based, human; settings: 48 hrs exposure
Description: as §1, §2, §3

[11] = system: OVCAR-5; experiment: NCI SRB cytotoxicity, OVCAR-5 (ovarian); assay type: cell-based, human; settings: 48 hrs exposure
Description: as §1, §2, §3

[12] = system: DU-145; experiment: NCI SRB cytotoxicity, DU-145 (prostate); assay type: cell-based, human; settings: 48 hrs exposure
Description: as §1, §2, §3

[13] = system: OVCAR-4; experiment: NCI SRB cytotoxicity, OVCAR-4 (ovarian); assay type: cell-based, human; settings: 48 hrs exposure
Description: as §1, §2, §3

[14] = system: IGROV1; experiment: NCI SRB cytotoxicity, IGROV1 (ovarian); assay type: cell-based, human
Description: as §1, §2, §3

[15] = system: SNB-19; experiment: NCI SRB cytotoxicity, SNB-19 (CNS); assay type: cell-based, human; settings: 48 hrs exposure
Description: as §1, §2, §3

[16] = system: Melanoma; experiment: NCI SRB cytotoxicity, melanoma panel; assay type: cell-based, human; settings: average of six to eight different cancer cell lines; for Log10 LC50: 50% lethality
Description: as §1, §2, §3

[17] = system: SN12C; experiment: NCI SRB cytotoxicity, SN12C (renal); assay type: cell-based, human; settings: 48 hrs exposure
Description: as §1, §2, §3

[18] = system: SK-MEL-5; experiment: NCI SRB cytotoxicity, SK-MEL-5 (melanoma); assay type: cell-based, human
Description: as §1, §2, §3

[19] = system: KM12; experiment: NCI SRB cytotoxicity, KM12 (colon); assay type: cell-based, human; settings: 48 hrs exposure
Description: as §1, §2, §3

[20] = system: MDA-MB-; experiment: NCI SRB cytotoxicity, MDA-MB- (breast); assay type: cell-based, human; settings: 48 hrs exposure
Description: as §1, §2, §3

[21] = system: duplex-form calf thymus DNA (CT-DNA); experiment: Thermal denaturation studies with calf thymus DNA; assay type: binding; settings: [PBD]:[DNA] molar ratio 1:5, CT-DNA 100 μM, ligand 20 μM, pH 7.00
Description: Compounds have been subjected to thermal denaturation studies with duplex-form calf thymus DNA (CT-DNA) using a modification of a reported procedure. Working solutions in aqueous buffer (10 mM NaH2PO4/Na2HPO4, 1 mM Na2EDTA, pH 7.00+0.01) containing CT-DNA (100 (μm in phosphate) and the PBD (20(μm) have been prepared by addition of concentrated PBD solutions in DMSO to obtain a fixed [PBD]/[DNA] molar ratio of 1:5. The DNA-PBD solutions have been incubated at 37° C. for 0 and 18 hrs prior to analysis. Samples have been monitored at 260 nm using a Beckman DU-800 spectrophotometer fitted with high performance temperature controller, and heated at 1° C. min^−1 in the 40-110° C. range. DNA helix→coil transition temperatures (Tm) have been obtained from the maxima in the d(A260)/d T derivative plots. Drug-induced alterations in DNA melting behavior are given by: ΔTm=Tm(DNA+PBD)−Tm(DNA alone), where the Tm value for the PBD-free CT-DNA is 68.5±0.01.
The DNA-binding for these novel C8-linked isoxazoline-PBD hybrids has been examined by thermal denaturation studies using calf thymus CT-DNA. […] Data for 5a-c, 9b and 9g and DC-81 are included in Table 4 for comparison.

[22] = system: 786-0; experiment: NCI SRB cytotoxicity, 786-0 (renal); assay type: cell-based, human; settings: 48 hrs exposure
Description: as §1, §2, §3

[23] = system: MOLT-4; experiment: NCI SRB cytotoxicity, MOLT-4 (leukemia); assay type: cell-based, human; settings: 48 hrs exposure
Description: as §1, §2, §3

[24] = system: SK-OV-3; experiment: NCI SRB cytotoxicity, SK-OV-3 (ovarian); assay type: cell-based, human; settings: 48 hrs exposure
Description: as §1, §2, §3

[25] = system: SK-MEL-2; experiment: NCI SRB cytotoxicity, SK-MEL-2 (melanoma); assay type: cell-based, human; settings: 48 hrs exposure
Description: as §1, §2, §3

[26] = system: UACC-62; experiment: NCI SRB cytotoxicity, UACC-62 (melanoma); assay type: cell-based, human
Description: as §1, §2, §3

[27] = system: HCT-15; experiment: NCI SRB cytotoxicity, HCT-15 (colon); assay type: cell-based, human
Description: as §1, §2, §3

[28] = system: PC-3; experiment: NCI SRB cytotoxicity, PC-3 (prostate); assay type: cell-based, human
Description: as §1, §2, §3

[29] = system: UO-31; experiment: NCI SRB cytotoxicity, UO-31 (renal); assay type: cell-based, human; settings: 48 hrs exposure
Description: as §1, §2, §3

[30] = NCI-H522, Non-smallcell lung, 48 hrs exposure
[31] = IGROV1, Ovarian, 48 hrs exposure
[32] = SK-MEL-5, Melanoma, 48 hrs exposure
[33] = UACC-62, Melanoma, 48 hrs exposure
[34] = PC-3, Prostate, 48 hrs exposure

SMILES	GI50 [1]	Log10 LC50 [2]	Log10GI50 [2]	Log10 LC50 [3]	Log10GI50 [3]	GI50 [4]	GI50 [5, 30]	GI50 [6]	Log10 LC50 [7]	Log10GI50 [7]	GI50 [8]	GI50 [9]	GI50 [10]	GI50 [11]	GI50 [12]	GI50 [13]	GI50 [14, 31]	GI50 [15]	Log10 LC50 [16]	Log10GI50 [16]	other results
COc1cc(C2=NOC(c3cc(OC)c(OC)c(OC)c3)C2)ccc1OCCCCOc1cc2c(cc1OC)C(=O)N1CCC[C@H]1C=N2 (stereo partly drawn) [Compound 5b, (11aS)-7-(methyloxy)-8-(4-[(2-(methyloxy)-4-5-[3,4,5-tri(methyloxy)phenyl]-4,5-dihydro-3-isoxazolylphenyl)oxy]butyloxy)-2,3,5,11a-tetrahydro-1H benzo[e]pyrrolo[1,2-a][1,4]diazepin-5-one]	280 nM	−4.84 mol/L	−6.44 mol/L	−4.18 mol/L	−6.76 mol/L	370 nM	120 nM	270 nM	−4.78 mol/L	−6.59 mol/L	260 nM	160 nM	300 nM	420 nM	320 nM	400 nM	240 nM	340 nM	−5.82 mol/L	−6.68 mol/L	GI50 ([5]; non-small cell lung cancer NCI-H522): 120 nM; GI50 ([14]; ovarian IGROV1): 240 nM; GI50 [17]: 300 nM; GI50 [18, 32]: 160 nM; GI50 ([18]; melanoma SK-MEL-5): 200 nM; GI50 [19]: 220 nM; GI50 [20]: 190 nM; ΔTm after incubation at 37° C. for 0 hrs [21]: 4.1 °C; ΔTm after incubation at 37° C. for 18 hrs [21]: 6.2 °C; GI50 [22]: 280 nM; GI50 [23]: 200 nM; GI50 [24]: 470 nM; GI50 [25]: 230 nM; GI50 [26, 33]: 160 nM; GI50 ([26]; melanoma UACC-62): 160 nM; GI50 ([27]; HCT-15, Colon, 48 hrs exposure): 180 nM; GI50 ([27]; colon cancer HCT-15): 190 nM; GI50 [28, 34]: 320 nM; GI50 ([28]; prostate PC-3): 320 nM; GI50 [29]: 290 nM
COc1ccc(C2CC(c3ccc(OC)c(OC)c3OC)=NO2)cc1OCCCCOc1cc2c(cc1OC)C(=O)N1CCC[C@H]1C=N2 (stereo partly drawn) [Compound 9b, (11aS)-7-(methyloxy)-8-(4-[(2-(methyloxy)-5-3-[2,3,4-tri(methyloxy)phenyl]-4,5-dihydro-5-isoxazolylphenyl)oxy]butyloxy)-2,3,5,11a-tetrahydro-1H-benzo[e]pyrrolo[1,2-a][1,4]diazepin-5-one]	3510 nM	−4.48 mol/L	−5.61 mol/L	−4.37 mol/L	−5.83 mol/L	2550 nM	610 nM	1830 nM	−4.73 mol/L	−5.70 mol/L	2330 nM	1410 nM	1730 nM	3130 nM	2480 nM	2070 nM	1570 nM	1960 nM	−5.12 mol/L	−5.72 mol/L	GI50 [17]: 1580 nM; GI50 [18, 32]: 1470 nM; GI50 [19]: 1740 nM; GI50 [20]: 1150 nM; ΔTm after incubation at 37° C. for 0 hrs [21]: 1.2 °C; ΔTm after incubation at 37° C. for 18 hrs [21]: 2.3 °C; GI50 [22]: 1570 nM; GI50 [23]: 1850 nM; GI50 [24]: 3370 nM; GI50 [25]: 2030 nM; GI50 [26, 33]: 1520 nM; GI50 ([27]; HCT-15, Colon, 48 hrs exposure): 2270 nM; GI50 [28, 34]: 580 nM; GI50 [29]: 2090 nM
